Assay results from patent US8389573B2, “Glycyrrhetinic acid derivatives” (Wellington Laboratories Inc., priority 2006, dated 2013).

How the values were obtained:
Assay type in all cases: cell-based
[1] = target: T1, PPARγ-coactivator interactions (Homo sapiens, UniProt P37231); experiment: Mammalian two-hybrid assay (VP-PPARγ, GAL4-coactivator) in SW480 cells
T1 construct: expressed in transfected cells; host or cells: SW480 cells, transient transfection (LipofectAMINE)
T1 sequence (P37231 238-503 limits assumed): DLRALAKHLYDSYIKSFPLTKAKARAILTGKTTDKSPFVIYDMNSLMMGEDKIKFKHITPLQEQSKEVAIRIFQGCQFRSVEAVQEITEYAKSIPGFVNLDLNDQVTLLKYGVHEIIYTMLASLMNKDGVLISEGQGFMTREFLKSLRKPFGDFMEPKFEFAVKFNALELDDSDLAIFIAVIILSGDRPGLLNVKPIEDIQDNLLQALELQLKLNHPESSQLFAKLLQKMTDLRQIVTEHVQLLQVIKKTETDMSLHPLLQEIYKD
Method: SW480 and HT29 cell lines were plated in 12-well plates at 1×10^5 cells/well in DMEM/F-12 media supplemented with 2.5% charcoal-stripped fetal bovine serum. After growth for 16 h, various amounts of DNA, i.e. Gal4Luc (0.4 μg), β-gal (0.04 μg), VP-PPARγ (0.04 μg), pMSRC1 (0.04 μg), pMSRC2 (0.04 μg), pMSRC3 (0.04 μg), pMPGC-1 (0.04 μg), pMDRIP205 (0.04 μg), and pMCARM-1 (0.04 μg) were transfected by LipofectAMINE (Invitrogen) according to the manufacturer's protocol. After 5 h of transfection, the transfection mix was replaced with complete media containing either vehicle (DMSO) or the indicated ligand for 20-22 h. Cells were then lysed with […] of 1× reporter lysis buffer, and 30 μl of cell extract was used for luciferase and β-galactosidase assays. Lumicount was used to quantitate luciferase and β-galactosidase activities, and the luciferase activities were normalized to β-galactosidase activity.

[2] = tested on: LNCaP human prostate carcinoma cells; experiment: Cell proliferation assay in LNCaP cells; conditions: 96 hr, read-out: IC50, inhibition of LNCaP cell growth
Method: Cell lines: LNCaP human prostate carcinoma cells were obtained from American Type Culture Collection (Manassas, Va.). Fetal bovine serum was obtained from JRH Biosciences, Lenexa, Kans. LNCaP cells were maintained in RPMI 1640 (Sigma Chemical, St. Louis, Mo.) supplemented with 0.22% sodium bicarbonate, 0.011% sodium pyruvate, 0.45% glucose, 0.24% HEPES, 10% FBS, and 10 mL/L of 100× antibiotic/antimycotic solution (Sigma). Cells were maintained at 37° C. in the presence of 5% CO2.
Cell Proliferation and DNA Fragmentation Assays: LNCaP prostate cancer cells (2×10^4 per well) were added to 12-well plates and allowed to attach for 24 hr. The medium was then changed to DMEM/Ham's F-12 media containing 2.5% charcoal-stripped FBS, and either vehicle (DMSO) or the indicated C-DIMs were added. Fresh medium and indicated compounds were added every 48 hr, and cells were then trypsinized and counted after 2, 4, and 6 days using a Coulter Z1 cell counter (Beckman Coulter, Fullerton, Calif.). Each experiment was done in triplicate, and results are expressed as means±S.E. for each set of three experiments. The DNA fragmentation assay was performed using a BioVision Apoptotic DNA ladder extraction kit (BioVision, Mountain View, Calif.) according to the manufacturer's protocol.

PPARγ [3] = experiment: PPARγ-GAL4/pGAL4 transfection and luciferase assay in SW480 cells
Method: (§1) The Gal4 reporter containing 5× Gal4 response elements (pGal4) was kindly provided by Dr. Marty Mayo (University of North Carolina, Chapel Hill, N.C.). Gal4 DBD-PPARγ construct (gPPARγ) was a gift of Dr. Jennifer L. Oberfield (GlaxoSmithKline Research and Development, Research Triangle Park, N.C.). PPRE3-luc construct contains three tandem PPREs with a minimal TATA sequence in pGL2.
(§2) Colon Cancer cell lines SW480 and HT29 (1×10^5 cells/well) were plated in 12-well plates in DMEM/Ham's F-12 media supplemented with 2.5% charcoal-stripped FBS. After 16 h, various amounts of DNA [i.e., Gal4Luc (0.4 μg), β-Gal (0.04 μg), Gal4PPAR and PPRE3-Luc (0.04 μg)] were transfected using LipofectAMINE™ reagent (Invitrogen) following the manufacturer's protocol. Five hours after transfection, the transfection mix was replaced with complete media containing either vehicle (DMSO) or the indicated ligand for 20 to 22 h. Cells were then lysed with 100 μl of 1× reporter lysis buffer, and 30 μl of cell extract was used for luciferase and […] assays. A LumiCount™ luminometer (PerkinElmer Life and Analytical Sciences) was used to quantitate luciferase and β-Gal activities, and the luciferase activities were normalized to β-Gal activity. Results are expressed as means±S.E. for at least three replicate determinations for each treatment group

PPARγ [4] = experiment: PPARγ-GAL4/pGAL4 transfection and luciferase assay in HT-29 cells
Method: as §1, §2

PPARγ interaction with coactivators PGC-1 and SRC-1 [1]: induced transactivation | ligand-induced interactions of SRC-2, SRC-3, CARM1, TRAP220 and SMRT with PPARγ [1]: not observed | IC50 [2]: ~1000 nM
SMILES: COC(=O)[C@@]1(C)CC[C@]2(C)CC[C@]3(C)C(=CC(=O)[C@@H]4[C@@]5(C)C=C(C#N)C(=O)C(C)(C)[C@@H]5CC[C@]43C)[C@@H]2C1 [β-CDODA-Me, Methyl 2-cyano-3,11-dioxo-18β-oleana-1,12-dien-30-oate]
induced luciferase activity after cotreatment with PPARγ antagonist T007 (PPARγ [3]; 1.0, 2.5, 5.0 β-CDODA-Me or 10, 20, 30 μM β-CDODA, 10 μM T007): inhibited | maximal induction of luciferase activity (PPARγ activation) (PPARγ [3]; 1-5 μM): 18 Fold | PPARγ transactivation (GAL4-PPARγ/GAL4-Luc) (PPARγ [4]): induced transactivation
